What all share (experiment): Kinase Selectivity Assay (CEREP, HTRF)
Holding throughout (assay type): biochemical
For orientation: Time-resolved FRET reads energy transfer from a long-lived donor to a nearby acceptor.

The target of test [1] is T1, CaMK4 (Homo sapiens, UniProt Q16566).
T1 construct: CEREP, France (ran the assays)
T1 sequence (Q16566 1-473): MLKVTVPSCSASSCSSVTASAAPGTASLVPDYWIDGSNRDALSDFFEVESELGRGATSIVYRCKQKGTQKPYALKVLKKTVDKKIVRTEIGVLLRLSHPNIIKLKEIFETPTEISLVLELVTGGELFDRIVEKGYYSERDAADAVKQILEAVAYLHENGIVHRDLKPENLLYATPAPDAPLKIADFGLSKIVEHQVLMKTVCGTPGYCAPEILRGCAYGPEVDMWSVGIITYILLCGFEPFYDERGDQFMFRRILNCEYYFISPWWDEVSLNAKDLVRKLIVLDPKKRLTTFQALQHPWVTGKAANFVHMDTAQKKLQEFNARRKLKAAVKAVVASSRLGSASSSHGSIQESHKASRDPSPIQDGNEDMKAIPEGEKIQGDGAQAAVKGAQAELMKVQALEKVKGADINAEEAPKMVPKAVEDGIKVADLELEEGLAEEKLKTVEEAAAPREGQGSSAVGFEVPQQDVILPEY
The conditions noted are these: read-out: % Inhibition at 10 μM Concentration, CaMK4. The procedure: (§1) kinase, ROCK2, RSK2, Src kinase, Syk, and TRKA. The % Inhibition was determined

Test [2] concerns the target T2, FLT-1 kinase (VEGFR1) (Homo sapiens, UniProt P17948).
T2 construct: CEREP, France (ran the assays)
Conditions: read-out: % Inhibition at 10 μM Concentration, FLT-1 (VEGFR1). The method, then:
as §1

Test [3] addresses MEK1/MAP2K1 (Homo sapiens, UniProt Q02750). The conditions noted are these: read-out: % Inhibition at 10 μM Concentration, MEK1/MAP2K1. The procedure: as §1
Test [4] deals with PKCg (Homo sapiens, UniProt P05129). The conditions noted are these: read-out: % Inhibition at 10 μM Concentration, PKCgamma. The procedure:
as §1

Test [5] has as its target T3, ERK1 (Homo sapiens, UniProt P27361).
T3 construct: CEREP, France (ran the assays)
Conditions: read-out: % Inhibition at 10 μM Concentration, ERK1. The procedure: as §1

Test [6] addresses T4, p38g kinase (Homo sapiens, UniProt P53778).
T4 sequence (P53778 1-367): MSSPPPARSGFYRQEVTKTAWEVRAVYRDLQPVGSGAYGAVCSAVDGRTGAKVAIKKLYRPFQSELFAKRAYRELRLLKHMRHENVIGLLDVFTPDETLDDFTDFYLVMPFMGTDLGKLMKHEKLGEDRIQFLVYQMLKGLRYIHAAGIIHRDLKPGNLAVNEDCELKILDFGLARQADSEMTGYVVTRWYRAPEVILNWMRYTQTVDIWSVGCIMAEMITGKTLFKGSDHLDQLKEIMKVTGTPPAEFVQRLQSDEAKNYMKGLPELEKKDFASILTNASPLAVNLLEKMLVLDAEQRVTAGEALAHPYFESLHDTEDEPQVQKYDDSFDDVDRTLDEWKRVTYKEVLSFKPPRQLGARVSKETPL
The conditions noted are these: read-out: % Inhibition at 10 μM Concentration, p38gamma. The procedure:
as §1

Test [7] addresses PKA (Homo sapiens, UniProt P17612). The conditions noted are these: read-out: % Inhibition at 10 μM Concentration, PKA. The procedure:
as §1

The target of test [8] is Src kinase (Homo sapiens, UniProt P12931). Conditions: read-out: % Inhibition at 10 μM Concentration, Src. The procedure: as §1
The target of test [9] is T5, PDK1 (Homo sapiens, UniProt O15530).
T5 sequence (O15530 1-556): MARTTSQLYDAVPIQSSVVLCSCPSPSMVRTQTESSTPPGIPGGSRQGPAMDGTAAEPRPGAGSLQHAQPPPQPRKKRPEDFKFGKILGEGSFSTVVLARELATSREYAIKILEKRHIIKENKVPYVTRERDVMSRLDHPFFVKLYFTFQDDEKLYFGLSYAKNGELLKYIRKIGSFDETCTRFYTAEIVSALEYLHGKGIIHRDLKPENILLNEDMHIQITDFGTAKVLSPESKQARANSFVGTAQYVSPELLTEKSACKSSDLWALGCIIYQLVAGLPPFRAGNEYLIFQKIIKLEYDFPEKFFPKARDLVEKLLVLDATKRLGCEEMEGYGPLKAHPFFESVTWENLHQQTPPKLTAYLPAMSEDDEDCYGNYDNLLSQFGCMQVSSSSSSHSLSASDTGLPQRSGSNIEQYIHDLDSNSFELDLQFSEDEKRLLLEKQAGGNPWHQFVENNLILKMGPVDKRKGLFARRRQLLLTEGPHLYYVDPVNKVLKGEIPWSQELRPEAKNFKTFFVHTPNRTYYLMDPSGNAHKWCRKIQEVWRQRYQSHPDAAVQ
The conditions noted are these: read-out: % Inhibition at 10 μM Concentration, PDK1. The method, then:
as §1

For test [10], the target named is Syk (Homo sapiens, UniProt P43405). The conditions noted are these: read-out: % Inhibition at 10 μM Concentration, Syk. The procedure: as §1
The target of test [11] is p38a kinase (Homo sapiens, UniProt Q16539). Conditions: read-out: % Inhibition at 10 μM Concentration, p38alpha. The method, then:
as §1

Test [12] concerns the target JNK 2 (Homo sapiens, UniProt P45984). Conditions: read-out: % Inhibition at 10 μM Concentration, JNK 2. The procedure: as §1
Test [13] has as its target T6, Akt1/PKBa (Homo sapiens, UniProt P31749).
T6 construct: CEREP, France (ran the assays)
The conditions noted are these: read-out: % Inhibition at 10 μM Concentration, Akt1/PKBalpha. The method, then:
as §1

The target of test [14] is T7, FGFR2 kinase (Homo sapiens, UniProt P21802).
T7 construct: CEREP, France (ran the assays)
The conditions noted are these: read-out: % Inhibition at 10 μM Concentration, FGFR2. The method, then:
as §1

The source of these data is US8765748B2, “Indazolyl, benzimidazolyl, benzotriazolyl substituted indolinone derivatives as kinase inhibitors useful in the treatment of cancer” (University Health Network, priority 2007, dated 2014).

p38a kinase, sequence (Q16539 whole entry): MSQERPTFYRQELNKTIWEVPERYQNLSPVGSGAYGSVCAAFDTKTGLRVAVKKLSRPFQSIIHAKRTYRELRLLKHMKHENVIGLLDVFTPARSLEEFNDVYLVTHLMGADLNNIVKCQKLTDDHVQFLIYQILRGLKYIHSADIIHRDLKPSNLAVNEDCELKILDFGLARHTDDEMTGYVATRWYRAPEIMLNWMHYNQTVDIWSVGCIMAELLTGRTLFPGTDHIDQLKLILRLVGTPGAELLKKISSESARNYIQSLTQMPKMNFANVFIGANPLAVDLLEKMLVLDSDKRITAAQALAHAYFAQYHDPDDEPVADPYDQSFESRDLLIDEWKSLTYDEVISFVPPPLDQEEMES
JNK 2, sequence (P45984 whole entry): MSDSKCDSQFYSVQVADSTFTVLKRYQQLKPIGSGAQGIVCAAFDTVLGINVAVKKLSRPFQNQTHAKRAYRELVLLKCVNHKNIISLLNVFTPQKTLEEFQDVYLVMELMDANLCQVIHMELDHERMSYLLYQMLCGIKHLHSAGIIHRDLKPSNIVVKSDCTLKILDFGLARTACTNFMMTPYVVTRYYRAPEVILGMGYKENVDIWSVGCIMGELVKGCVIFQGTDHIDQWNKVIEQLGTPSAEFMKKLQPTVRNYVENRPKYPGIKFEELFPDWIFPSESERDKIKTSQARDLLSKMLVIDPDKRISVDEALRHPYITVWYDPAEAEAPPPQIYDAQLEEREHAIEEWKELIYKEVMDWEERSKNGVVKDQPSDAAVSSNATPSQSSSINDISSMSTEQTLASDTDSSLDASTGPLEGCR
MEK1/MAP2K1, sequence (Q02750 whole entry): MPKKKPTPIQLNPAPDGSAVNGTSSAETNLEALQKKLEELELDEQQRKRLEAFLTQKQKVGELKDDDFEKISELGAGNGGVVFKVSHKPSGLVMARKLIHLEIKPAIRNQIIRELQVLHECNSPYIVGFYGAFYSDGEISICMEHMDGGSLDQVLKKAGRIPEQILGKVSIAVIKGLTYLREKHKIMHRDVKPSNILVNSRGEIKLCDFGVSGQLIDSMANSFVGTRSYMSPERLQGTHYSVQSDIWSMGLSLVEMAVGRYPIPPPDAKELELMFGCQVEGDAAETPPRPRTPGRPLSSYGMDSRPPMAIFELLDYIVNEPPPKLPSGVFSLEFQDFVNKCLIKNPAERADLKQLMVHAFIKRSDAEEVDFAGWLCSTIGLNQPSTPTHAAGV
T2 sequence (P17948 27-1338): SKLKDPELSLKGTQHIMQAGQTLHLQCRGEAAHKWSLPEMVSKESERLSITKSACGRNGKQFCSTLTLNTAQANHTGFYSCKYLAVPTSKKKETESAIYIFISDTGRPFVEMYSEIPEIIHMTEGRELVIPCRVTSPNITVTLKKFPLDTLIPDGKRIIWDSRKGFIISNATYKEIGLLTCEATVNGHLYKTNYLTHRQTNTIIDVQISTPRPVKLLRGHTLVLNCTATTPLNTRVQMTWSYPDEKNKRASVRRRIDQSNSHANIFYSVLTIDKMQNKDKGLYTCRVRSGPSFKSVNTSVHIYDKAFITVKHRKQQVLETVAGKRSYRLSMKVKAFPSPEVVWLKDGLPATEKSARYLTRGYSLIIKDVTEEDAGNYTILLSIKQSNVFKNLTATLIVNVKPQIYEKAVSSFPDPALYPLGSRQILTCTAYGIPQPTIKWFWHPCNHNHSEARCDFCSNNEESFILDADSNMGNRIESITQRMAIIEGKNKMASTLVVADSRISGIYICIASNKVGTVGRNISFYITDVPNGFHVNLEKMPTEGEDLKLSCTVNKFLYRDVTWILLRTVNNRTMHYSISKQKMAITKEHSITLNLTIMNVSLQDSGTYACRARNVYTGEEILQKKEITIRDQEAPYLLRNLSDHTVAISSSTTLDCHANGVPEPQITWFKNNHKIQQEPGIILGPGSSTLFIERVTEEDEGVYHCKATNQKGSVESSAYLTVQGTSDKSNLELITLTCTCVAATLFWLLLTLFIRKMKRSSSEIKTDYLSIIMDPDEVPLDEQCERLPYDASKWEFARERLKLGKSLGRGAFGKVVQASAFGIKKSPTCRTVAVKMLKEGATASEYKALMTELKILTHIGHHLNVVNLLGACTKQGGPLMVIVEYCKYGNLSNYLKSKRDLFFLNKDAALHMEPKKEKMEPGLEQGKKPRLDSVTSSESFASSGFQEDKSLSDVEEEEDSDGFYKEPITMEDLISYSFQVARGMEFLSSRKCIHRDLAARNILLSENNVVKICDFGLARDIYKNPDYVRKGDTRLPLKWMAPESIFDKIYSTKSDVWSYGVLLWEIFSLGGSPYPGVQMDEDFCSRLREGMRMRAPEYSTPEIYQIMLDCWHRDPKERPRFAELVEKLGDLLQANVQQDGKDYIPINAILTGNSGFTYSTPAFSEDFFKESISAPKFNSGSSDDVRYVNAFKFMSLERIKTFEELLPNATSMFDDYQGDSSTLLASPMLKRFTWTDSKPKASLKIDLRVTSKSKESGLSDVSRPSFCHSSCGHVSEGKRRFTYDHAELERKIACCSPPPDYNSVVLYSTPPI
T3 sequence (P27361 whole entry): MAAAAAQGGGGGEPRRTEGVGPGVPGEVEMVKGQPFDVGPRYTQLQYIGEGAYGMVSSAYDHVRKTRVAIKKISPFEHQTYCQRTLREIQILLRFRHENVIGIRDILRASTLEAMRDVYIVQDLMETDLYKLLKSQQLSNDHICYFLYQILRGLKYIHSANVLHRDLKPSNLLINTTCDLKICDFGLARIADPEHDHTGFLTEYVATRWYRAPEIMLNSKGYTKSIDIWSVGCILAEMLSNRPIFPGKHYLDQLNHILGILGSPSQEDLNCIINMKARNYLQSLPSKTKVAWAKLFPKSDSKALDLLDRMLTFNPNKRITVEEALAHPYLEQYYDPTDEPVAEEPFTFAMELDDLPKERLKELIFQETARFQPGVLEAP
T6 sequence (P31749 whole entry): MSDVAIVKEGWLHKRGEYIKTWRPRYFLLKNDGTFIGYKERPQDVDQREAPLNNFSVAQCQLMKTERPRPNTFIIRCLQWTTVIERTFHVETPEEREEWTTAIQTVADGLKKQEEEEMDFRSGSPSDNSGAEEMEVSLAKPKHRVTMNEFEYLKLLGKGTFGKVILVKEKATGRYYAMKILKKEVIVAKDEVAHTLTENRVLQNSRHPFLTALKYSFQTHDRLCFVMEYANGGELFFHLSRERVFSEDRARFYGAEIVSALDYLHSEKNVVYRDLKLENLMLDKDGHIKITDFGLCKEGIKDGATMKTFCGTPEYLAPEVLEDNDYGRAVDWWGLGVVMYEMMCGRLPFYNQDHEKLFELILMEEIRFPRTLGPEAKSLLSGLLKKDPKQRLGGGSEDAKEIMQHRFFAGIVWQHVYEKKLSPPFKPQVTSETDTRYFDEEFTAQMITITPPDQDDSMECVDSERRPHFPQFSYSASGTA
Src kinase, sequence (P12931 whole entry): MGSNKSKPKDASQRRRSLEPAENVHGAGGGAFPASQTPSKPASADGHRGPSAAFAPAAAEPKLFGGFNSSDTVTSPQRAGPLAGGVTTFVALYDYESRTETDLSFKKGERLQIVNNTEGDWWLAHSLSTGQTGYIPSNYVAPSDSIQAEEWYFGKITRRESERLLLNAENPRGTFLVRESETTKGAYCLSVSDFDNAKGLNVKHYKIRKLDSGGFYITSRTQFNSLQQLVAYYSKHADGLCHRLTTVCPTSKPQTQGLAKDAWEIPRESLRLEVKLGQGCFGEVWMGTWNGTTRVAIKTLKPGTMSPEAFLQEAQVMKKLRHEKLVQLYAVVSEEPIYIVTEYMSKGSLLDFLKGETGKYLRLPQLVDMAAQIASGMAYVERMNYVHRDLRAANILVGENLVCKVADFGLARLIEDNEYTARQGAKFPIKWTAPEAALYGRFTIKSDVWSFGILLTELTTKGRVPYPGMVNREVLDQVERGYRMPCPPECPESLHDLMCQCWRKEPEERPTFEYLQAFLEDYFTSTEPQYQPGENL

Regarding `COc1ccc2c(c1)C(=Cc1ccc3c(-c4ccc(N5CCN(C)CC5)nc4)n[nH]c3c1)C(=O)N2` (mixture of isomers) [Example A97, (E and Z)-5-methoxy-3-((3-(6-(4-methylpiperazin-1-yl)pyridin-3-yl)-1H-indazol-6-yl)methylene)indolin-2-one], the inhibition at 10 µM in test [1] is 2%; in test [2] it was 73%; in test [3] it was 9%; in test [4], 0%; in test [5], 10%; in [6], 1%. The inhibition at 10 µM in test [7] stood at 0%; in test [8], 24%; in [9] it was 73%; in test [10] it was 21%; in [11] it was 11%; in [12], 14%. Moreover, the results for the inhibition at 10 µM in test [13] and in [14] were -4% and 35%, respectively.

For `O=C1Nc2ccccc2C1=Cc1ccc2c(/C=C/c3ccccn3)n[nH]c2c1` (mixture of isomers) [Example A41, (E and Z)-3-((3-((E)-2-(pyridin-2-yl)vinyl)-1H-indazol-6-yl)methylene)indolin-2-one], the inhibition at 10 µM in [1] stood at 27%; in [2], 99%; in test [3], 46%; in test [4], 0%; in test [5], 13%; in test [6], 2%. In addition, the inhibition at 10 µM in [7] is -4%; in test [8] it was 59%; in test [9], 4%; in test [10], 70%; in [11], 16%; in test [12], 52%. Further, the inhibition at 10 µM in test [13] was -3%; in [14] it was 97%.

Take `O=C1Nc2ccccc2/C1=C\c1ccc2[nH]nnc2c1` [Example A1, (E)-3-((1H-benzo[d][1,2,3]triazol-5-yl)methylene)indolin-2-one]: the inhibition at 10 µM in test [1] turned out to be 3%; in [2] it was 0%; in test [3], 20%; in test [4] it was 9%; in [5], 6%; in [6], 14%. Further, the inhibition at 10 µM was 9% in test [7]; 10% in test [8]; -3% in test [9]; -2% in test [10]; -8% in [11]; 13% in test [12]. Moreover, the figures for the inhibition at 10 µM in test [13] and in test [14] were -3% and 68%, respectively.

For `O=C1Nc2ccccc2/C1=C\c1ccc2cn[nH]c2c1` [Example A5, (E)-3-((1H-indazol-6-yl)methylene)indolin-2-one], the inhibition at 10 µM in test [1] was 26%; in [2], 16%; in test [3] it was 3%; in test [4] it was -6%; in test [5], 6%; in [6] it was 5%. Further, the inhibition at 10 µM in test [7] is -1%; in [8], -9%; in test [9], 2%; in test [10], -3%; in test [11], 18%; in [12], 14%. Further, the inhibition at 10 µM in [13] was -4%; in test [14] it was 31%.

Consider `O=C1Nc2ccccc2/C1=C\c1ccc2c(/C=C/c3ccccc3Cl)n[nH]c2c1` [Example A60, (E)-3-((3-((E)-2-chlorostyryl)-1H-indazol-6-yl)methylene)indolin-2-one], for which the inhibition at 10 µM was -15% in test [1]; 42% in test [2]; 16% in test [3]; 3% in [4]; 1% in test [5]; 10% in test [6]. In addition, the inhibition at 10 µM in [7] was 7%; in test [8], 0%; in test [9] it was 1%; in test [11], 1%; in test [12] it was 3%; in test [13], -14%. Also, the inhibition at 10 µM in test [14] amounted to 10%.
